Measured values as given in patent US20230398135A1, “COMPOSITIONS INCLUDING CANNABINOID AND USE THEREOF IN THE MANUFACTURE OF A MEDICAMENT FOR THE TREATMENT OF INFLAMMATION IN A SUBJECT” (priority 2022, published 2023).

How the values were obtained:
[1] = molecular target: T1, COX-2 (Homo sapiens, UniProt P35354); assay: fluorometric COX-2 inhibition assay (Cayman Chemical kit); type: biochemical; conditions: for inhibition at 50 µM: read-out: COX-2 Inhibition (%); for COX-2 inhibition corresponding to plateau (FIGS. 3A, 3B): after molar concentrations exceeded 10 μM; for COX-2 inhibitory effect (FIG. 1): used individually at 50 μM, 10 μM, 2 μM, 0.04 μM
T1 construct: purchased BioVision Inc. (Mountain View, CA, USA)
T1 sequence (P35354 18-604): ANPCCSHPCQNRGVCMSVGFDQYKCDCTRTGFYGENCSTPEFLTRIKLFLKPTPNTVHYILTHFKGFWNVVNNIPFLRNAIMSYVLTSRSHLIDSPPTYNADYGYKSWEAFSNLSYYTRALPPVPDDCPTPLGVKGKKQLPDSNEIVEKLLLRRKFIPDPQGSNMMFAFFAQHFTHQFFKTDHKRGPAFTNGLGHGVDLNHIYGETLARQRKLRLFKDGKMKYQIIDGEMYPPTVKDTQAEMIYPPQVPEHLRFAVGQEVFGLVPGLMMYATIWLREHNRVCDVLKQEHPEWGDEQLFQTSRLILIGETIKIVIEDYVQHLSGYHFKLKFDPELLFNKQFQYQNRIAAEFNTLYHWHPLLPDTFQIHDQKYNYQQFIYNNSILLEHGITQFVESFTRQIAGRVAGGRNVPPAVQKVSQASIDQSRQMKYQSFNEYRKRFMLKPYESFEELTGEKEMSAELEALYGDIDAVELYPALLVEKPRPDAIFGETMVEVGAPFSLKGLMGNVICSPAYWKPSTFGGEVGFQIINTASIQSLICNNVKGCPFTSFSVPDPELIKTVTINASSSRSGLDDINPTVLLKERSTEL
Description: FIG. 1 is a bar diagram illustrating COX-2 inhibitory effects of CBD and CBG used individually at different molar concentrations according to some embodiments of the present disclosure. Table 1 illustrates COX-2 inhibitory effects of some skincare active components used individually according to some embodiments of the present disclosure. The COX-2 inhibitory effects in FIG. 1 and Table 1 were determined using a fluorometric COX-2 inhibition kit from Cayman Chemical Company (Ann Arbor, Michigan, USA) according to the method of COX-2 inhibition assay as described elsewhere in the present disclosure.
Table 2 illustrates COX-2 inhibitory effects of exemplary compositions of CBD and CBG according to some embodiments of the present disclosure. The COX-2 inhibitory effects in Table 2 were determined using a fluorometric COX-2 inhibition kit from Cayman Chemical Company (Ann Arbor, Michigan, USA) according to the method of COX-2 inhibition assay as described elsewhere in the present disclosure. The compositions A, B, and C in Table 2 may be at 10 μM.
FIG. 2 is a bar diagram illustrating COX-2 inhibitory effects of CBD and CBG used individually and in combination at different molar concentrations according to some embodiments of the present disclosure. The COX-2 inhibitory effects in FIG. 1 and Table 1 were determined using a fluorometric COX-2 inhibition kit from Cayman Chemical Company (Ann Arbor, Michigan, USA) according to the method of COX-2 inhibition assay as described in the present disclosure. In FIG. 2. COMIX represents a composition (or mixture) of CBD, CBG, NMN, BAK, AGE Defense, and RC Bio. Concentrations of CBD, CBG, NMN, BAK, AGE Defense, and RC Bio in COMIX were 10 ug/mL, 2 ug/mL, 2 ug/mL, 2 ug/mL, 2 ug/mL, and 2 ug/mL, respectively. The COX-2 inhibitory effect of COMIX was measured for providing an assay basis for designing subsequent COX-2 inhibition assays. MIX′ represents a composition (or mixture) of CBD and CBG at a molar concentration ratio of 1:1. […] When a total CBD/CBG molar concentration of MIX′ was 0.5 μM, molar concentrations of CBD and CBG in MIX′ were 0.25 μM. Similarly, when a total CBD/CBG molar concentration of MIX′ was 1.0 μM, molar concentrations of CBD and CBG in MIX′were 0.5 μM; when a total CBD/CBG molar concentration of MIX′ was 5 μM, molar concentrations of CBD and CBG in MIX were 2.5 μM; when a total CBD/CBG molar concentration of MIX′ was 10 μM, molar concentrations of CBD and CBG in MIX′ were 5 μM; and when a total CBD/CBG molar concentration of MIX′ was 20 μM, molar concentrations of CBD and CBG in MIX′ were 10.0 μM.
(§1) Materials and methods: the inhibitory effects of test samples (e.g., CBD, CBG, BAK, Mix, a positive control, and/or other compounds and compositions described in the present disclosure) against COX-2 were measured by a fluorometric COX-2 inhibition kit from Cayman Chemicals (Ann Arbor, Michigan, USA) or BioVision Inc. (Mountain View, CA, USA) following the manufacturer's instructions. Briefly, a COX-2 enzyme was reconstituted with 110 μL of sterile distilled H2O and arachidonic acid was dissolved in 55 μL ethanol. COX cofactor was diluted with COX assay buffer for 200 times, and arachidonic acid and NaOH were mixed in a molar ratio of 1:1 before it was diluted for 10 times for further use. COX assay buffer (84 μL), COX probe (1 μL), diluted COX cofactor (2 μL), COX-2 enzyme (1 μL), and test samples (2 μL) were incubated in a 96-well plate at room temperature for 10 min. Next, diluted arachidonic acid/NaOH solution (10 μL) was added to each well of the 96-well plate to initiate the reaction.

[2] = test system: TNF-α; assay: suppression of TNF-α in inflammatory model induced by lipopolysaccharides and nigericin; type: cell-based; conditions: 20 μM; LPS and nigericin model
Description: (§2) FIGS. 7 and 8 are bar diagrams illustrating exemplary abilities of CBG, BAK, and a composition (i.e., Mix) of CBD, CBG, and BAK at a molar concentration of 1:1:1 to suppress activities of pro-inflammatory cytokines according to some embodiments of the present disclosure. In FIGS. 7 and 8, Model represents an inflammatory model that was induced by lipopolysaccharides and nigericin. The abilities/functions of CBG, BAK, and Mix to suppress pro-inflammatory cytokines in FIGS. 7 and 8 were measured at a total CBD/CBG/BAK molar concentration of 20 μM. An ability/function to suppress activity of a pro-inflammatory cytokine was reflected by a remaining concentration of the pro-inflammatory cytokine after the reaction. The greater the remaining concentration of the pro-inflammatory cytokine, the worse the ability to suppress activity of the pro-inflammatory cytokine.

[3] = test system: IL-1β; assay: suppression of IL-1β in inflammatory model, cell level; type: cell-based; conditions: 20 μM; LPS and nigericin model
Description: as §2
FIG. 9 is a bar diagram illustrating exemplary abilities of a composition (i.e., Mix) of CBD, CBG, and BAK at a molar concentration of 1:1:1 at different molar concentrations to suppress activity of […] according to some embodiments of the present disclosure. In FIG. 9, Model represents an inflammatory model which was different from that in FIG. 8. […]

[4] = molecular target: T1, COX-2; assay: fluorometric COX-2 inhibition assay (BioVision kit); type: biochemical; conditions: for COX-2 inhibitory effect compared with personal care ingredients (terpenes): all at 50 μM, FIGS. 4-6; for inhibition at 10 µM / inhibition at 50 µM: read-out: COX-2 Inhibition (%); for inhibition at 12.5 µM: read-out: COX-2 inhibitions (FIG. 5)
Description: The COX-2 inhibitory effects in FIGS. 4-6 were determined using a fluorometric COX-2 inhibition kit from BioVision Inc. (Mountain View, CA, USA) according to the methods described in COX-2 inhibition assay. The personal care ingredients Lim, Lin, Ner, Myc, α-pin, β-car, and α-bis represent limonene, linalool, nerolidol, myrcene, alpha-pinene, beta-caryophyllene, and alpha-bisabolol, respectively. In FIGS. 5 and 6, MIX represents a composition (or mixture) of CBD, CBG, and BAK at a molar concentration ratio of 1:1:1. MIX 50 μM, MIX 25 μM, and 12.5 μM represent total CBD/CBG/BAK molar concentrations of MIX being 50 μM, 25 μM, and 12.5 μM, respectively. CBD 50 μM represents that CBD is used individually and a molar concentration of CBD is 50 μM.
as §1, with “reaction. The fluorescence of each well was recorded at an excitation wavelength of 535 nm and an emission wavelength of 587 nm with a kinetic mode for 10 min using a plate reader (SpectraMax® M2, Molecular Devices Corp., operated by SoftmaxPro® v.4.6 software, Sunnyvale, CA, USA). […] Two points (T1 and T2) in a linear range of a plot related to the recorded fluorescence were used to obtain corresponding fluorescence values (RFU1 and RFU2). Then, a slope for a sample was calculated by dividing a net ΔRFU (RFU2-RFU1) value by the time ΔT (T2-T1). An inhibition (%) of COX-2 of the sample was determined as the following equation: Inhibition (%)=((slope of control−slope of the sample)/slope of control)×100.” for “reaction.”

[5] = antioxidant DPPH assay (free radical scavenging); conditions: used individually
Description: In some embodiments, the composition may have an antioxidant activity/effect. FIG. 10 is a bar diagram illustrating antioxidant effects of CBD, CBG, and BAK used individually according to some embodiments of the present disclosure. In some embodiments, data in the bar diagram in FIG. 10 was determined (e.g., measured) according to an antioxidant DPPH (i.e., α, α-diphenyl-β-picrylhydrazyl) assay that was well known for the skills in the art. An antioxidant effect was reflected by free radical scavenging after the reaction. The greater the free radical scavenging, the better the antioxidant effect.

Structure (SMILES) | COX-2 Inhibition (%) ([1]; compound used individually at 50 μM) | inhibition at 50 µM [1] | remaining concentration of TNF-α versus Model (FIG. 7) [2] | remaining concentration of IL-1β versus Model (FIG. 8) [3] | COX-2 inhibitory effect compared with personal care ingredients (terpenes) [4] | inhibition at 10 µM [4] | inhibition at 50 µM [4] | inhibition at 12.5 µM [4] | antioxidant effect compared with the other compounds (FIG. 10) [5] | antioxidant effect, free radical scavenging (FIG. 10) [5] | COX-2 inhibition corresponding to plateau (FIGS. 3A, 3B) [1] | COX-2 inhibitory effect (FIG. 1) [1]
NC(=O)c1ccc[n+]([C@@H]2O[C@H](COP(=O)([O-])O)[C@@H](O)[C@H]2O)c1 [NMN, nicotinamide mononucleotide] | 19.63% | – | – | – | – | – | – | – | – | – | – | –
Cn1c(=O)c2c(ncn2C)n(C)c1=O [Caffeine, caffeine, reference compound] | – | 63.5% | – | – | – | – | – | – | – | – | – | –
C=C[C@@](C)(/C=C/c1ccc(O)cc1)CCC=C(C)C [BAK, bakuchiol] | – | 81.9% | lower than the remaining concentration of TNF-α corresponding to Model | had an activity to suppress activity of IL-113 | better COX-2 inhibitory effects than the personal care ingredients | 45% | 67.3% | ~60% | better antioxidant effect than CBG and CBG | had an antioxidant effect | – | –
CCCCCc1cc(O)c(C/C=C(\C)CCC=C(C)C)c(O)c1 [CBG, cannabigerol] | – | 87.4% | lower than the remaining concentration of TNF-α corresponding to Model | had an activity to suppress activity of IL-113 | better COX-2 inhibitory effects than the personal care ingredients | 51.9% | 65.7% | ~60% | – | had an antioxidant effect | about 60% | had a COX-2 inhibitory effect
C=C(C)[C@@H]1CCC(C)=C[C@H]1c1c(O)cc(CCCCC)cc1O [CBD, cannabidiol, reference compound] | – | 71.9% | – | – | better COX-2 inhibitory effects than the personal care ingredients | 42% | 52.5% | ~60% | – | had an antioxidant effect | about 60% | had a COX-2 inhibitory effect
